Values quoted from earlier work in PMC11573584, “Thanatin and vinyl sulfide analogues as narrow spectrum antimicrobial peptides that synergise with polymyxin B” (Frontiers in Pharmacology, 2024).
Like-named read-outs stand apart in the source and are kept apart here. Marks after values point to notes of the source that are not given here.

Tests used:
S. aureus ATCC 25923 = conditions: non-cation adjusted media, ref Sinha et al. (2022), cited from earlier work
Description: (§1) TABLE 1 Minimum Inhibitory Concentrations (MICs) of thanatin* (5) and similar analogues against a variety of pathogens. | column: Minimum inhibitory concentration (µM) / Thanatin ^a ^, ^b (1); Minimum inhibitory concentration (µM) / Thanatin M21F ^b (4) || TABLE 2 Minimum Inhibitory Concentrations (MICs) of thanatin* (5) and analogues (8–11) towards a variety of pathogens. | column: Minimum inhibitory concentration (µM) / 1 (Thanatin) ^a

E. coli ATCC 25922 = conditions: non-cation adjusted media, ref Wu et al. (2013); cited from earlier work
Description: as §1, with “S-Thanatin ^a (3)” for “Thanatin M21F ^b (4)”

E. coli BL21 = conditions: non-cation adjusted media, ref Sinha et al. (2022); cited from earlier work
Description: (§2) TABLE 1 Minimum Inhibitory Concentrations (MICs) of thanatin* (5) and similar analogues against a variety of pathogens. | column: Minimum inhibitory concentration (µM) / Thanatin ^a ^, ^b (1); Minimum inhibitory concentration (µM) / Thanatin M21F ^b (4)

P. aeruginosa ATCC 27853 = conditions: non-cation adjusted media, ref Sinha et al. (2022); cited from earlier work
Description: as §2

P. aeruginosa PAO1 = conditions: ref Sinha et al. (2022); cited from earlier work
Description: TABLE 2 Minimum Inhibitory Concentrations (MICs) of thanatin* (5) and analogues (8–11) towards a variety of pathogens. | column: Minimum inhibitory concentration (µM) / 1 (Thanatin) ^a

In the case of Thanatin [Thanatin (1)], the “Minimum inhibitory concentration (MIC)” value (S. aureus ATCC 25923; listed as 1 (Thanatin)) is given as 8 µM, the “Minimum inhibitory concentration (MIC)” value (S. aureus ATCC 25923) is given as 8 ^b µM and the “Minimum inhibitory concentration (MIC)” value (E. coli ATCC 25922) is given as 3.2 ^a µM. For the same substance, the “Minimum inhibitory concentration (MIC)” value (E. coli BL21) was 0.5 ^b µM, the “Minimum inhibitory concentration (MIC)” value (P. aeruginosa ATCC 27853) was 1 ^b µM and the “Minimum inhibitory concentration (MIC)” value (P. aeruginosa PAO1) was 2 µM.
